Results reported in US20230158157A1, “POTENT AND SELECTIVE DEGRADERS OF ALK” (DANA-FARBER CANCER INSTITUTE, INC., priority 2020, published 2023).
Like-named read-outs stand apart in the source and are kept apart here. Each block holds one molecule with its values, some of them ahead of it.

Legend:
H3122 cells = assay: CTG; format: cell-based
EML4-ALK = molecular target: T1, EML4-ALK (Homo sapiens, UniProt Q9UM73); assay: EML4-ALK HiBit degradation assay in CRISPR-tagged H3122 cells (Nano-Glo HiBit Lytic Detection); format: cell-based
T1 construct: endogenous in cells; host or cells: H3122 (NSCLC), single-cell clone after CRISPR knock-in of HiBit; the other entry of the earlier key: EML4 (Q9HC35, Echinoderm microtubule-associated protein-like 4)
T1 sequence (Q9UM73 with tags, fused parts or gaps): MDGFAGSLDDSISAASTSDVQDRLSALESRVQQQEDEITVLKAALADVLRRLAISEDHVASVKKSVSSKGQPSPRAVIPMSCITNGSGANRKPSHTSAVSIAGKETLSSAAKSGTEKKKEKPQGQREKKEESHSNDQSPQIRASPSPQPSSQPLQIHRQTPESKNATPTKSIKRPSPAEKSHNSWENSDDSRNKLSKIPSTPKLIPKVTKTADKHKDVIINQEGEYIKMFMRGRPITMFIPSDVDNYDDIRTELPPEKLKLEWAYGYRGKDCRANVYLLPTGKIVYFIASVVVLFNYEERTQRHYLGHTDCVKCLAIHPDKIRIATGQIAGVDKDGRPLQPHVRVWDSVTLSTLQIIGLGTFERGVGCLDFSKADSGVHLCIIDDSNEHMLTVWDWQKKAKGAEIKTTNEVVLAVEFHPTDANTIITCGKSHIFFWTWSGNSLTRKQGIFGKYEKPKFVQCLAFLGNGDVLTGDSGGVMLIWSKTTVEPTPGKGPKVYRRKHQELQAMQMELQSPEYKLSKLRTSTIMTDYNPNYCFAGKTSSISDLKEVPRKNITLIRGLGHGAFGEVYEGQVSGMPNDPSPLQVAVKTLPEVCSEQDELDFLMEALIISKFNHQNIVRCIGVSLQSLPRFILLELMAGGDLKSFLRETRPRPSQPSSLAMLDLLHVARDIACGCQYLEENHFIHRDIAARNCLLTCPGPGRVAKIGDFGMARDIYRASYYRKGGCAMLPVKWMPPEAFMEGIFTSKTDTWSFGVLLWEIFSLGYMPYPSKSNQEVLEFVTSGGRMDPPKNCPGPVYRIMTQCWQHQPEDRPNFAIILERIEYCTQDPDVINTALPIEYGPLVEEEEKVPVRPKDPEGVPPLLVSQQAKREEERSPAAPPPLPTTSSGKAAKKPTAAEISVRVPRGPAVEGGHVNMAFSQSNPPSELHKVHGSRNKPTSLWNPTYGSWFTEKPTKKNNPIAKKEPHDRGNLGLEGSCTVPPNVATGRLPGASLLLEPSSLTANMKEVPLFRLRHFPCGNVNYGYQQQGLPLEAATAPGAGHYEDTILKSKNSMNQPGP
Method: (§1) NSCLC cell line H3122 was subjected to CRISPR to express EML4-ALK with HiBit-tag on its c-terminal. Single-cell clone was selected and expanded for the following assays that monitor endogenous EML4-ALK level in high throughput manner. Cells were seeded in 384-well white Tissue-culture plates at 3000 cells/well for 8 hours. […] HiBit signal was assessed using Nano-Glo® HiBit Lytic Detection System (Promega™). Degrader-treated was normalized by DMSO-treated controls and DC50 and Dmax were generated by GraphPad Prism® 8.0.
as §1, with “its c-terminus. A single-cell” for “its c-terminal. Single-cell”, “Degrader-treated cells were” for “Degrader-treated was”
as §1, with “its C-terminus. A single-cell” for “its c-terminal. Single-cell”, “Degrader-treated cells were” for “Degrader-treated was”

[1] = Homo sapiens, NCI-H3122, Table 1, read-out: CTG IC50
[2] = NCI-H3122, Table 1, first Dmax column, H3122 EML4-ALK-HiBit, 16 hours, read-out: Degradation Dmax
[3] = NCI-H3122, Table 1, second Dmax column, H3122 EML4-ALK-HiBit, 16 hours, read-out: Degradation Dmax
[4] = NCI-H3122, Table 1, average Dmax, read-out: Degradation Avg. Dmax
[5] = Table 1, first DC50 column, H3122 EML4-ALK-HiBit, 16 hours, read-out: Degradation DC50
[6] = Table 1, second DC50 column, H3122 EML4-ALK-HiBit, 16 hours, read-out: Degradation DC50
[7] = Table 1, average DC50, read-out: Degradation Avg. DC50
[8] = Table 2, first DC50 column, H3122 EML4-ALK-HiBit, 16 hours, read-out: Degradation DC50
[9] = Table 2, average DC50, read-out: Degradation Avg. DC50
[10] = Homo sapiens, NCI-H3122, Table 2, read-out: CTG IC50
[11] = NCI-H3122, Table 2, first Dmax column, H3122 EML4-ALK-HiBit, 16 hours, read-out: Degradation Dmax
[12] = NCI-H3122, Table 2, second Dmax column, H3122 EML4-ALK-HiBit, 16 hours, read-out: Degradation Dmax
[13] = NCI-H3122, Table 2, average Dmax, read-out: Degradation Avg. Dmax
[14] = Table 2, second DC50 column, H3122 EML4-ALK-HiBit, 16 hours, read-out: Degradation DC50

- IC50 (H3122 cells; [1]): 67.7 nM
- Dmax (EML4-ALK; [2]): 54.8%
- Dmax (EML4-ALK; [3]): 49.4%
- Dmax (EML4-ALK; [4]): 52.1%
- DC50 (EML4-ALK; [5]): 214 nM
- DC50 (EML4-ALK; [6]): 107 nM
- DC50 (EML4-ALK; [7]): 160 nM
Structure (SMILES): COc1cc(CCN(C)C(=O)CCOCCC(=O)N[C@H](C(=O)N2C[C@H](O)C[C@H]2C(=O)N[C@@H](C)c2ccc(-c3scnc3C)cc2)C(C)(C)C)c(C)cc1Nc1ncc(Cl)c(Nc2ccccc2S(=O)(=O)C(C)C)n1 [compound 52, (2S,4R)-1-((S)-2-(3-(3-((4-((5-chloro-4-((2-(isopropylsulfonyl)phenyl)amino)pyrimidin-2-yl)amino)-5-methoxy-2-methylphenethyl)(methyl)amino)-3-oxopropoxy)propanamido)-3,3-dimethylbutanoyl)-4-hydroxy-N-((S)-1-(4-(4-methylthiazol-5-yl)phenyl)ethyl)pyrrolidine-2-carboxamide]

- IC50 (H3122 cells; Table 2, read-out: CTG IC50): > 10000 nM
- DC50 (EML4-ALK; [8]): 9340 nM
- DC50 (EML4-ALK; [9]): 9340 nM
Structure (SMILES): COc1cc(CCN(C)C(=O)CCCNC(=O)COc2cccc3c2C(=O)N(C2CCC(=O)NC2=O)C3=O)c(C)cc1Nc1ncc(Cl)c(Nc2ccccc2P(C)(C)=O)n1 (centres unmarked) [Compound 57]

- IC50 (H3122 cells; [1]): 1310 nM
- Dmax (EML4-ALK; [2]): 47.3%
- Dmax (EML4-ALK; [4]): 47.3%
- DC50 (EML4-ALK; [5]): 777 nM
- DC50 (EML4-ALK; [7]): 777 nM
Structure (SMILES): COc1cc(CCN(C)C(=O)CCCCCCCCC(=O)N[C@H](C(=O)N2C[C@H](O)C[C@H]2C(=O)N[C@@H](C)c2ccc(-c3scnc3C)cc2)C(C)(C)C)c(C)cc1Nc1ncc(Cl)c(Nc2ccccc2S(=O)(=O)C(C)C)n1 [compound 42, N^1-(4-((5-chloro-4-((2-(isopropylsulfonyl)phenyl)amino)pyrimidin-2-yl)amino)-5-methoxy-2-methylphenethyl)-N^10-((S)-1-((2S,4R)-4-hydroxy-2-(((S)-1-(4-(4-methylthiazol-5-yl)phenyl)ethyl)carbamoyl)pyrrolidin-1-yl)-3,3-dimethyl-1-oxobutan-2-yl)-N^1-methyldecanediamide]

- IC50 (H3122 cells; [1]): 125 nM
- Dmax (EML4-ALK; [2]): 43.4%
- Dmax (EML4-ALK; [4]): 43.4%
- DC50 (EML4-ALK; [5]): 203 nM
- DC50 (EML4-ALK; [7]): 203 nM
Structure (SMILES): COc1cc(CCN(C)C(=O)CCCCCC#Cc2cccc3c2C(=O)N(C2CCC(=O)NC2=O)C3=O)c(C)cc1Nc1ncc(Cl)c(Nc2ccccc2S(=O)(=O)C(C)C)n1 (centres unmarked) [compound 10, N-(4-((5-chloro-4-((2-(isopropylsulfonyl)phenyl)amino)pyrimidin-2-yl)amino)-5-methoxy-2-methylphenethyl)-8-(2-(2,6-dioxopiperidin-3-yl)-1,3-dioxoisoindolin-4-yl)-N-methyloct-7-ynamide]

- IC50 (H3122 cells; [10]): > 10000 nM
Structure (SMILES): COc1cc(CCN(C)C(=O)CCCCCNC(=O)COc2cccc3c2C(=O)N(C2CCC(=O)NC2=O)C3=O)c(C)cc1Nc1ncc(Cl)c(Nc2ccccc2P(C)(C)=O)n1 (centres unmarked) [Compound 58]

- IC50 (H3122 cells; [10]): > 10000 nM
- Dmax (EML4-ALK; [11]): 29.5%
- Dmax (EML4-ALK; [12]): 39.6%
- Dmax (EML4-ALK; [13]): 34.5%
- DC50 (EML4-ALK; [8]): 9040 nM
- DC50 (EML4-ALK; [14]): 8370 nM
- DC50 (EML4-ALK; [9]): 8700 nM
Structure (SMILES): COc1cc(CCN(C)C(=O)CCCC#Cc2cccc3c2C(=O)N(C2CCC(=O)NC2=O)C3=O)c(C)cc1Nc1ncc(Cl)c(Nc2ccccc2P(C)(C)=O)n1 (centres unmarked) [Compound 61]

- IC50 (H3122 cells; [1]): 136 nM
- Dmax (EML4-ALK; [3]): 38.4%
- DC50 (EML4-ALK; [6]): 346 nM
Structure (SMILES): COc1cc(CCN(C)C(=O)CCCCCCCCNc2cccc3c2C(=O)N(C2CCC(=O)NC2=O)C3=O)c(C)cc1Nc1ncc(Cl)c(Nc2ccccc2S(=O)(=O)C(C)C)n1 (centres unmarked) [compound 3, N-(4-((5-chloro-4-((2-(isopropylsulfonyl)phenyl)amino)pyrimidin-2-yl)amino)-5-methoxy-2-methylphenethyl)-9-((2-(2,6-dioxopiperidin-3-yl)-1,3-dioxoisoindolin-4-yl)amino)-N-methylnonanamide]

- IC50 (H3122 cells; [1]): 252 nM
- Dmax (EML4-ALK; [2]): 53%
- Dmax (EML4-ALK; [4]): 53%
- DC50 (EML4-ALK; [5]): 1250 nM
- DC50 (EML4-ALK; [7]): 1250 nM
Structure (SMILES): COc1cc(CCNCCCCCC(=O)N[C@H](C(=O)N2C[C@H](O)C[C@H]2C(=O)N[C@@H](C)c2ccc(-c3scnc3C)cc2)C(C)(C)C)c(C)cc1Nc1ncc(Cl)c(Nc2ccccc2S(=O)(=O)C(C)C)n1 [Compound 44]

- IC50 (H3122 cells; Homo sapiens, NCI-H3122, Table 1, unheaded column beside IC50 (nM), read-out: CTG IC50): 414 nM
- IC50 (H3122 cells; [1]): 1480 nM
- Dmax (EML4-ALK; [2]): 79.1%
- Dmax (EML4-ALK; [3]): 99.3%
- Dmax (EML4-ALK; [4]): 89.2%
- DC50 (EML4-ALK; [5]): 402 nM
- DC50 (EML4-ALK; [6]): 184 nM
- DC50 (EML4-ALK; [7]): 293 nM
Structure (SMILES): CN[C@@H](C)C(=O)N[C@H](C(=O)N1Cc2cc(OCCCCCNCCc3cc(OC)c(Nc4ncc(Cl)c(Nc5ccccc5S(=O)(=O)C(C)C)n4)cc3C)ccc2C[C@H]1C(=O)N[C@H]1CCCc2ccccc21)C(C)(C)C [Compound 39]

- IC50 (H3122 cells; [10]): 477 nM
Structure (SMILES): COc1cc(CCN(C)C(=O)CCCCCCCC(=O)N[C@H](C(=O)N2C[C@H](O)C[C@H]2C(=O)N[C@@H](C)c2ccc(-c3scnc3C)cc2)C(C)(C)C)c(C)cc1Nc1ncc(Cl)c(Nc2ccccc2P(C)(C)=O)n1 [compound 69, N^1-(4-((5-chloro-4-((2-(dimethylphosphoryl)phenyl)amino)pyrimidin-2-yl)amino)-5-methoxy-2-methylphenethyl)-N^9-((S)-1-((2S,4R)-4-hydroxy-2-(((S)-1-(4-(4-methylthiazol-5-yl)phenyl)ethyl)carbamoyl)pyrrolidin-1-yl)-3,3-dimethyl-1-oxobutan-2-yl)-N^1-methylnonanediamide]

- IC50 (H3122 cells; [10]): 371 nM
Structure (SMILES): COc1cc(CCN(C)C(=O)CCCCCCC(=O)N[C@H](C(=O)N2C[C@H](O)CC2C(=O)N[C@@H](C)c2ccc(-c3scnc3C)cc2)C(C)(C)C)c(C)cc1Nc1ncc(Cl)c(Nc2ccccc2P(C)(C)=O)n1 (stereo partly drawn) [compound 70, N^1-(4-((5-chloro-4-((2-(dimethylphosphoryl)phenyl)amino)pyrimidin-2-yl)amino)-5-methoxy-2-methylphenethyl)-N^8-((S)-1-((2S,4R)-4-hydroxy-2-(((S)-1-(4-(4-methylthiazol-5-yl)phenyl)ethyl)carbamoyl)pyrrolidin-1-yl)-3,3-dimethyl-1-oxobutan-2-yl)-N′-methyloctanediamide]

- Dmax (EML4-ALK; [11]): 47.1%
- Dmax (EML4-ALK; [12]): 47.2%
- Dmax (EML4-ALK; [13]): 47.1%
- DC50 (EML4-ALK; [8]): 506 nM
- DC50 (EML4-ALK; [14]): 480 nM
- DC50 (EML4-ALK; [9]): 490 nM
Structure (SMILES): CC[C@@H](NC(=O)[C@@H]1C[C@H](NC(=O)CCCCCCC(=O)N(C)CCc2cc(OC)c(Nc3ncc(Cl)c(Nc4ccccc4P(C)(C)=O)n3)cc2C)CN1C(=O)[C@@H](NC(=O)[C@H](C)NC)C(C)(C)C)c1ccccc1 [Compound 74]

- Dmax (EML4-ALK; [11]): 42.1%
- DC50 (EML4-ALK; [8]): 381 nM
Structure (SMILES): CC[C@@H](NC(=O)[C@@H]1C[C@H](NC(=O)CCCCCCCC(=O)N(C)CCc2cc(OC)c(Nc3ncc(Cl)c(Nc4ccccc4P(C)(C)=O)n3)cc2C)CN1C(=O)[C@@H](NC(=O)[C@H](C)NC)C(C)(C)C)c1ccccc1 [compound 75, N^1-(4-((5-chloro-4-((2-(dimethylphosphoryl)phenyl)amino)pyrimidin-2-yl)amino)-5-methoxy-2-methylphenethyl)-N^9-((3S,5S)-1-((S)-3,3-dimethyl-2-((S)-2-(methylamino)propanamido)butanoyl)-5-(((R)-1-phenylpropyl)carbamoyl)pyrrolidin-3-yl)-N^1-methylnonanediamide]

Structure (SMILES): COc1cc(CCNCCCCCC#Cc2cccc3c2C(=O)N(C2CCC(=O)NC2=O)C3=O)c(C)cc1Nc1ncc(Cl)c(Nc2ccccc2S(=O)(=O)C(C)C)n1 (centres unmarked) [compound 49, 4-(7-((4-((5-chloro-4-((2-(isopropylsulfonyl)phenyl)amino)pyrimidin-2-yl)amino)-5-methoxy-2-methylphenethyl)amino)hept-1-yn-1-yl)-2-(2,6-dioxopiperidin-3-yl)isoindoline-1,3-dione]
- IC50 (H3122 cells; Homo sapiens, NCI-H3122, read-out: CTG IC50): 96.3 nM
- IC50 (H3122 cells; [1]): 66.9 nM

- IC50 (H3122 cells; Table 2, read-out: CTG IC50): > 10000 nM
Structure (SMILES): COc1cc(CCN(C)C(=O)CCOCCOCCNC(=O)COc2cccc3c2C(=O)N(C2CCC(=O)NC2=O)C3=O)c(C)cc1Nc1ncc(Cl)c(Nc2ccccc2P(C)(C)=O)n1 (centres unmarked) [Compound 60]

- IC50 (H3122 cells; [10]): 301 nM
Structure (SMILES): COc1cc(CCN(C)C(=O)CCCNc2cccc3c2C(=O)N(C2CCC(=O)NC2=O)C3=O)c(C)cc1Nc1ncc(Cl)c(Nc2ccccc2P(C)(C)=O)n1 (centres unmarked) [Compound 64]

- IC50 (H3122 cells; [10]): 2290 nM
Structure (SMILES): COc1cc(CCN(C)C(=O)CCOCCOCCNc2cccc3c2C(=O)N(C2CCC(=O)NC2=O)C3=O)c(C)cc1Nc1ncc(Cl)c(Nc2ccccc2P(C)(C)=O)n1 (centres unmarked) [Compound 67]
